Experimental data: ChEMBL document CHEMBL1201862, “PubChem BioAssay data set” (2004)
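Five concentrations, 48 hours, 96-well plates. Abbreviation: GI50, concentration required for 50% inhibition of growth.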 The source made the active and inactive calls. No stated cut-off is given here; in the data, active = GI50 up to about 1.1 µM and inactive = higher.

Tests used:
Assay in all cases: DTP human tumour cell line panel, 48 h
SF-539 = tested on: SF-539
NCI-H522 = tested on: NCI-H522
OVCAR-8 = tested on: OVCAR-8
PC-3 = tested on: PC-3
RXF 393 = tested on: RXF 393
MDA-MB-231 = tested on: MDA-MB-231
HL-60 = tested on: HL-60
SF-268 = tested on: SF-268
Malme-3M = tested on: Malme-3M
ACHN = tested on: ACHN
HCT-116 = tested on: HCT-116
CCRF-CEM = tested on: CCRF-CEM
NCI-H23 = tested on: NCI-H23
HOP-92 = tested on: HOP-92
EKVX = tested on: EKVX
SK-MEL-5 = tested on: SK-MEL-5
Hs-578T = tested on: Hs-578T
T47D = tested on: T47D
IGROV-1 = tested on: IGROV-1

| Compound | GI50 (SF-539) | GI50 (NCI-H522) | GI50 (OVCAR-8) | GI50 (PC-3) | GI50 (RXF 393) | GI50 (MDA-MB-231) | GI50 (HL-60) | GI50 (SF-268) | GI50 (Malme-3M) | GI50 (ACHN) | GI50 (HCT-116) | GI50 (CCRF-CEM) | GI50 (NCI-H23) | GI50 (HOP-92) | GI50 (EKVX) | GI50 (SK-MEL-5) | GI50 (Hs-578T) | GI50 (T47D) | GI50 (IGROV-1) |
| --- | --- | --- | --- | --- | --- | --- | --- | --- | --- | --- | --- | --- | --- | --- | --- | --- | --- | --- | --- |
| O=C(c1ccc2ccccc2c1)N(Cc1cccnc1)C(=S)N(Cc1cccnc1)C(=O)c1ccc2ccccc2c1 | 40 µM (inactive) | 37.4 µM (inactive) | 25.7 µM (inactive) | 28.3 µM (inactive) | 19.3 µM (inactive) | 23.2 µM (inactive) | 40.8 µM (inactive) | 29.2 µM (inactive) | > 100 µM (inactive) | 32.1 µM (inactive) | 35.7 µM (inactive) | 60.7 µM (inactive) | 23.1 µM (inactive) | 26.5 µM (inactive) | 22.8 µM (inactive) | 20.6 µM (inactive) | 49.9 µM (inactive) | 26.3 µM (inactive) | – |
| O=c1cc(NNc2cccc(Cl)c2)[nH]c(=O)[nH]1 | > 100 µM (inactive) | 17.5 µM (inactive) | – | 75.3 µM (inactive) | > 100 µM (inactive) | 17.9 µM (inactive) | 19.5 µM (inactive) | > 100 µM (inactive) | 16.3 µM (inactive) | 38.9 µM (inactive) | 17.9 µM (inactive) | 21.6 µM (inactive) | 59.8 µM (inactive) | 18.5 µM (inactive) | – | 51.1 µM (inactive) | > 100 µM (inactive) | > 100 µM (inactive) | > 100 µM (inactive) |
| Cc1ccccc1N1C(N)=C(C#N)C(C#N)(C#N)C1c1ccccc1 (stereo unspecified) | 21.2 µM (inactive) | 15.3 µM (inactive) | 20.9 µM (inactive) | 24.6 µM (inactive) | 15.3 µM (inactive) | 13.3 µM (inactive) | 18.5 µM (inactive) | 20.9 µM (inactive) | 16.4 µM (inactive) | 16.1 µM (inactive) | 18 µM (inactive) | 14.7 µM (inactive) | 19.4 µM (inactive) | 13.8 µM (inactive) | 17.9 µM (inactive) | 15.8 µM (inactive) | 20.1 µM (inactive) | 12.5 µM (inactive) | 17.9 µM (inactive) |
| C=C1C2CCC3(CCC4C5(C)CCCC4(C=[N+](CCO)C5)C3C2)C1O (stereo unspecified) | > 100 µM (inactive) | > 100 µM (inactive) | > 100 µM (inactive) | > 100 µM (inactive) | > 100 µM (inactive) | > 100 µM (inactive) | > 100 µM (inactive) | > 100 µM (inactive) | > 100 µM (inactive) | > 100 µM (inactive) | > 100 µM (inactive) | > 100 µM (inactive) | > 100 µM (inactive) | > 100 µM (inactive) | > 100 µM (inactive) | > 100 µM (inactive) | > 100 µM (inactive) | > 100 µM (inactive) | > 100 µM (inactive) |
| Cc1ccc(C2=Nc3cc(C)c(Cl)cc3S(=O)(=O)NN2)cc1 | > 100 µM (inactive) | > 100 µM (inactive) | > 100 µM (inactive) | > 100 µM (inactive) | 72.1 µM (inactive) | 23.3 µM (inactive) | 34.4 µM (inactive) | 82.6 µM (inactive) | > 100 µM (inactive) | 65.5 µM (inactive) | > 100 µM (inactive) | 38.5 µM (inactive) | > 100 µM (inactive) | > 100 µM (inactive) | > 100 µM (inactive) | > 100 µM (inactive) | > 100 µM (inactive) | 54 µM (inactive) | > 100 µM (inactive) |
| CCOC(=O)C(NCc1cccc(C(F)(F)F)c1)(NC(=O)CC)C(F)(F)F (stereo unspecified) | > 100 µM (inactive) | > 100 µM (inactive) | > 100 µM (inactive) | 95.5 µM (inactive) | 5.52 µM (inactive) | 31.8 µM (inactive) | 58.5 µM (inactive) | > 100 µM (inactive) | > 100 µM (inactive) | > 100 µM (inactive) | > 100 µM (inactive) | > 100 µM (inactive) | > 100 µM (inactive) | 71 µM (inactive) | 68.5 µM (inactive) | > 100 µM (inactive) | > 100 µM (inactive) | 62.4 µM (inactive) | 18 µM (inactive) |
| O=C(/C=C/c1ccc(O)cc1)NCCc1ccc(O)cc1 [N-P-COUMAROYL TYRAMINE] | 3.13 µM (inactive) | 3.38 µM (inactive) | > 12.5 µM (inactive) | 8.57 µM (inactive) | > 12.5 µM (inactive) | > 12.5 µM (inactive) | 3.58 µM (inactive) | 9.57 µM (inactive) | > 12.5 µM (inactive) | 3.49 µM (inactive) | > 12.5 µM (inactive) | 2.99 µM (inactive) | 7.16 µM (inactive) | 5.14 µM (inactive) | 3.05 µM (inactive) | > 12.5 µM (inactive) | > 12.5 µM (inactive) | > 12.5 µM (inactive) | 8.3 µM (inactive) |
| CC(=O)OCC(=O)O[C@@H]1[C@H]2[C@@H](OC(=O)c3ccccc3)[C@@H](C)C[C@]2(O)[C@H](OC(C)=O)[C@@]2(C)C[C@]1(OC(C)=O)C[C@H]1C(=O)C(C)(C)[C@@H](OC(C)=O)[C@@H]12 | > 25 µM (inactive) | > 25 µM (inactive) | > 25 µM (inactive) | 22.4 µM (inactive) | > 25 µM (inactive) | > 25 µM (inactive) | 2.77 µM (inactive) | > 25 µM (inactive) | > 25 µM (inactive) | > 25 µM (inactive) | > 25 µM (inactive) | – | > 25 µM (inactive) | > 16.3 µM (inactive) | 24.8 µM (inactive) | 9.46 µM (inactive) | 9.55 µM (inactive) | > 25 µM (inactive) | > 25 µM (inactive) |
| COc1cc([C@@H]2c3cc4c(cc3[C@H](OC3OC5COC(C(C)C)OC5C(O)C3O)C3COC(=O)[C@@H]32)OCO4)cc(OC)c1O (stereo partly specified) | 2.72 µM (inactive) | 14 µM (inactive) | 9.31 µM (inactive) | 4.08 µM (inactive) | 4.76 µM (inactive) | 14.1 µM (inactive) | 1.99 µM (inactive) | 9.86 µM (inactive) | 16.6 µM (inactive) | 3.51 µM (inactive) | 3.85 µM (inactive) | 6.03 µM (inactive) | 4.03 µM (inactive) | 11.9 µM (inactive) | 17.6 µM (inactive) | 7.33 µM (inactive) | 9.71 µM (inactive) | 26.6 µM (inactive) | 5.21 µM (inactive) |
| CC(=O)NC1=C(C)C(=O)c2c(nc3n2CCC3OC(=O)c2ccccc2)C1=N (stereo unspecified) | 1.25 µM (inactive) | 3.83 µM (inactive) | 1.04 µM (active) | 1.32 µM (inactive) | 1.29 µM (inactive) | 2.07 µM (inactive) | 1.21 µM (inactive) | 2.18 µM (inactive) | 1.13 µM (inactive) | 1.71 µM (inactive) | 3.15 µM (inactive) | 1.58 µM (inactive) | 1.46 µM (inactive) | 2.15 µM (inactive) | 2.55 µM (inactive) | 1.42 µM (inactive) | 2.06 µM (inactive) | 1.85 µM (inactive) | 1.74 µM (inactive) |
| COC(=O)c1ccccc1NC(=O)/C(=N\NC(C)(C)C)C(C#N)c1nc(-c2ccc([N+](=O)[O-])cc2)cs1 (stereo unspecified) | > 100 µM (inactive) | > 10 µM (inactive) | > 100 µM (inactive) | > 100 µM (inactive) | > 100 µM (inactive) | > 100 µM (inactive) | > 100 µM (inactive) | > 100 µM (inactive) | > 100 µM (inactive) | > 100 µM (inactive) | > 100 µM (inactive) | > 100 µM (inactive) | > 100 µM (inactive) | > 100 µM (inactive) | > 100 µM (inactive) | > 100 µM (inactive) | > 100 µM (inactive) | > 100 µM (inactive) | > 100 µM (inactive) |
| COc1cc(C(N)=O)cc(NC(=O)/C=C/c2ccccc2)c1OC | 83 µM (inactive) | 64.9 µM (inactive) | 61.8 µM (inactive) | > 100 µM (inactive) | > 100 µM (inactive) | > 100 µM (inactive) | > 100 µM (inactive) | 64.3 µM (inactive) | > 100 µM (inactive) | > 100 µM (inactive) | > 100 µM (inactive) | > 100 µM (inactive) | > 100 µM (inactive) | 35.7 µM (inactive) | 89.7 µM (inactive) | 64.7 µM (inactive) | > 100 µM (inactive) | 71.1 µM (inactive) | > 100 µM (inactive) |
| O=C(OCC1OC(n2nc(Cn3nnc(-c4cccnc4)n3)n(-c3cccc4ccccc34)c2=S)C(OC(=O)c2ccccc2)C1OC(=O)c1ccccc1)c1ccccc1 (stereo unspecified) | > 100 µM (inactive) | > 100 µM (inactive) | > 100 µM (inactive) | > 100 µM (inactive) | > 100 µM (inactive) | 53.8 µM (inactive) | > 100 µM (inactive) | > 100 µM (inactive) | > 100 µM (inactive) | > 100 µM (inactive) | > 100 µM (inactive) | > 100 µM (inactive) | > 100 µM (inactive) | > 100 µM (inactive) | > 100 µM (inactive) | > 100 µM (inactive) | > 100 µM (inactive) | > 100 µM (inactive) | > 100 µM (inactive) |
| COc1ccc(C(=O)Sc2c(-c3ccccc3)c(=O)n(-c3ccccc3)c(=S)n2-c2ccccc2)cc1 | 14.2 µM (inactive) | > 100 µM (inactive) | 21.3 µM (inactive) | 5.16 µM (inactive) | 24.1 µM (inactive) | > 100 µM (inactive) | 60.5 µM (inactive) | 67.5 µM (inactive) | 48.5 µM (inactive) | 40.5 µM (inactive) | 29.7 µM (inactive) | 22.3 µM (inactive) | > 100 µM (inactive) | 24.1 µM (inactive) | > 100 µM (inactive) | – | > 100 µM (inactive) | > 100 µM (inactive) | 10.1 µM (inactive) |
